Laboratory results: patent US12508300B2, “Acylated GLP-1 derivative” (Sciwind Biosciences Co., Ltd., priority 2019, dated 2025)
*1 amine or outer side, *2 acyl side, *3 side chain or, on linkers, in order; H or OH if unused. Where a SMILES comes first, the peptide text is derived from it. Side-chain parts run from the residue outwards. The star is where a group is joined. C18 diacid = O=C(O)CCCCCCCCCCCCCCCCC(=O)*; γGlu = O=C(O)[C@H](CCC(=O)[*:2])N[*:1]; AEEA = NCCOCCOCC(=O)O

What was measured:
GLP1R = molecular target: T1, GLP1R (Homo sapiens, UniProt P43220); assay: In vitro activity determination in HEK293/CRE-Luc/GLP1R cells (luciferase reporter); assay type: cell-based
T1 construct: expressed in transfected cells; host or cells: HEK293
T1 sequence (P43220 24-463, species assumed): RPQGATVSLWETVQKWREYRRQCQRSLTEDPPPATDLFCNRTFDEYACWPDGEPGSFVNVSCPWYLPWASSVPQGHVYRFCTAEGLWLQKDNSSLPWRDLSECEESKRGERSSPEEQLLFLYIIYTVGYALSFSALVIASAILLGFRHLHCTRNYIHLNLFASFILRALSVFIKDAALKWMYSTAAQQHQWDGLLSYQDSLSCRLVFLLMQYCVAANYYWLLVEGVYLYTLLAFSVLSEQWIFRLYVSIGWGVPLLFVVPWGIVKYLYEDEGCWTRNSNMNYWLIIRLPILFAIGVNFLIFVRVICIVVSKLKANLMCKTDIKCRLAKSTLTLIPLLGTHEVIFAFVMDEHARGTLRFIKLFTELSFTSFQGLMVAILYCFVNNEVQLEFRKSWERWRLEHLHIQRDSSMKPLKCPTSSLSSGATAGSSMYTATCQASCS
Description: Based on the fact that GLP-1 may bind to the receptor on the cell membrane, the HEK293/CRE-Luc/GLPIR cell line is constructed, the CAMP response elements (CRE) are activated through a series of signal transduction, the expression of downstream luciferase is initiated, and the amount of its expression is positively correlated with the biological activity of GLP-1. After adding the luciferase substrate, the chemiluminescence assay is performed to determine the luminous intensity, thereby determining the biological activity of GLP-1.
96-well cell culture plate (white and opaque), DMEM medium (GIBCO), 0.05% TRYPSIN-EDTA (GIBCO), fetal bovine serum (GIBCO), G418, hygromycin B, Bright-Glo™ Luciferase Assay System Kit (Promega), and HEK293/CRE-luc/GLP1R cells.
(1) Cell preparation: the cells are cultured until they grow vigorously and reach a sufficient quantity, discarding the culture medium in the culture bottle, adding 3 ml of Versene solution and shaking once; then adding 2 ml of 0.05% TRYPSIN-EDTA digestion solution, covering the bottle and standing for 1 minute, and then adding 6 ml of the assay medium to quench the digestion; after centrifugation at 1000 r/min for 3 min, the supernatant is discarded, and the cells are resuspended in 5 ml of assay medium and counted on a hemacytometer. The cell density is adjusted to an appropriate range for later use by using DMEM assay medium.
(2) Sample preparation: the derivatives of different GLP-1 analogues in Table 1 are diluted to 20 ng/ml with the assay medium, then gradient diluted into 8 concentrations in 96-well plates, and using the assay medium instead of the sample as the cell blank control. 2 duplicate wells are made for each dilution concentration.
(3) Culturing with addition of the samples: the prepared solutions of the control and test samples are transferred to a 96-well cell culture plate (white board), adding 50 μl of the solution to each well; then adding the prepared cell suspension, adding 50 μl of the suspension to each well; and then incubating for a certain period of time under the conditions of 37° C. and 5% CO2.
(4) Chemiluminescence assay: substrate is added, then taking out the 96-well cell culture plate, adding 100 μl of Bright Glo reagent to each well, and leaving in the dark for 3 min.
(5) Reading: determination is performed with a chemiluminescence microplate reader SpectraMax L, then reading the plate within 30 min, and recording the determined results.

db/db mice = assay: Fasting blood glucose after single injection in type II diabetic db/db mice (FIG. 1); assay type: in vivo; conditions: 0.05 mg/kg s.c. single
Description: The dosage is 0.05 mg/kg for each, and the administration time is set as 0 h. Fasting blood glucose is measured after fasting for 6-8 h every day, and the fasting blood glucose after administration is measured every day until the fasting blood glucose value of each animal of the test group recovers to the value measured before administration. The blood glucose value measured before administration is called the basal blood glucose value, and is set as 0. Change of the fasting blood glucose (Δ: delta)=Blood glucose value after administration-Basal blood glucose value before administration.

| Compound | in vitro activities (comparison in words) (GLP1R) | glucose-lowing effect compared with Semaglutide (FIG. 1) (db/db mice; day 4 and day 5) | glucose-lowing effect compared with Semaglutide (FIG. 1) (db/db mice; day 2) |
| --- | --- | --- | --- |
| CC[C@H](C)[C@H](NC(=O)[C@H](Cc1ccccc1)NC(=O)[C@H](CCC(=O)O)NC(=O)[C@H](CCCNC(=N)N)NC(=O)[C@H](C)NC(=O)[C@H](C)NC(=O)[C@H](CCCCNC(=O)COCCOCCNC(=O)COCCOCCNC(=O)CC[C@H](NC(=O)CCCCCCCCCCCCCCCCC(=O)O)C(=O)O)NC(=O)[C@H](CCC(=O)O)NC(=O)[C@H](CCC(=O)O)NC(=O)[C@H](CC(C)C)NC(=O)[C@H](Cc1ccc(O)cc1)NC(=O)[C@H](CO)NC(=O)[C@H](CO)NC(=O)[C@@H](NC(=O)[C@H](CC(=O)O)NC(=O)[C@H](CO)NC(=O)[C@@H](NC(=O)[C@H](Cc1ccccc1)NC(=O)[C@@H](NC(=O)CNC(=O)[C@H](CCC(=O)O)NC(=O)[C@@H](NC(=O)[C@@H](N)Cc1c[nH]cn1)[C@@H](C)CC)[C@@H](C)O)[C@@H](C)O)C(C)C)C(=O)N[C@@H](C)C(=O)N[C@@H](Cc1c[nH]c2ccccc12)C(=O)N[C@@H](CC(C)C)C(=O)N[C@H](C(=O)N[C@@H](CCCNC(=N)N)C(=O)NCC(=O)N[C@@H](CCCNC(=N)N)C(=O)NCC(=O)O)C(C)C [M9, N-ε^23-[2-(2-[2-(2-[2-(2-[4-(17-carboxyheptadecanoylamino)-4(s)-carboxybutyrylamino]ethoxy)ethoxy]acetylamino)ethoxy]ethoxy)acetyl](Ile^8Glu^22Lys^23Arg^26,34-GLP-1 (7-37)) peptide] (H-HIEGTFTSDVSSYLEEK([AEEA-AEEA-γGlu-C18 diacid])AAREFIAWLVRGRG-OH; N-terminus and C-terminus assumed) | comparable | better than that of Semaglutide |  |
| CC[C@H](C)[C@H](NC(=O)[C@H](Cc1ccccc1)NC(=O)[C@H](CCC(=O)O)NC(=O)[C@H](CCCNC(=N)N)NC(=O)[C@H](C)NC(=O)[C@H](C)NC(=O)[C@H](CCCCNC(=O)COCCOCCNC(=O)COCCOCCNC(=O)CC[C@H](NC(=O)CCCCCCCCCCCCCCCCC(=O)O)C(=O)O)NC(=O)[C@H](CCC(=O)O)NC(=O)[C@H](CCC(=O)O)NC(=O)[C@H](CC(C)C)NC(=O)[C@H](Cc1ccc(O)cc1)NC(=O)[C@H](CO)NC(=O)[C@H](CO)NC(=O)[C@@H](NC(=O)[C@H](CC(=O)O)NC(=O)[C@H](CO)NC(=O)[C@@H](NC(=O)[C@H](Cc1ccccc1)NC(=O)[C@@H](NC(=O)CNC(=O)[C@H](CCC(=O)O)NC(=O)CNC(=O)[C@@H](N)Cc1c[nH]cn1)[C@@H](C)O)[C@@H](C)O)C(C)C)C(=O)N[C@@H](C)C(=O)N[C@@H](Cc1c[nH]c2ccccc12)C(=O)N[C@@H](CC(C)C)C(=O)N[C@H](C(=O)N[C@@H](CCCNC(=N)N)C(=O)NCC(=O)N[C@@H](CCCNC(=N)N)C(=O)NCC(=O)O)C(C)C [M11, N-ε^23-[2-(2-[2-(2-[2-(2-[4-(17-carboxyheptadecanoylamino)-4(s)-carboxybutyrylamino]ethoxy)ethoxy]acetylamino)ethoxy]ethoxy)acetyl](Gly^8Glu^22Lys^23Arg^26,34-GLP-1(7-37)) peptide] (H-HGEGTFTSDVSSYLEEK([AEEA-AEEA-γGlu-C18 diacid])AAREFIAWLVRGRG-OH; N-terminus and C-terminus assumed) | comparable |  | lower than that of Semaglutide |
| CC[C@H](C)[C@H](NC(=O)[C@H](Cc1ccccc1)NC(=O)[C@H](CCC(=O)O)NC(=O)[C@H](CCCNC(=N)N)NC(=O)[C@H](C)NC(=O)[C@H](C)NC(=O)[C@H](CCC(N)=O)NC(=O)[C@H](CCC(=O)O)NC(=O)[C@H](CCC(=O)O)NC(=O)[C@H](CC(C)C)NC(=O)[C@H](Cc1ccc(O)cc1)NC(=O)[C@H](CO)NC(=O)[C@H](CO)NC(=O)[C@@H](NC(=O)[C@H](CC(=O)O)NC(=O)[C@H](CO)NC(=O)[C@@H](NC(=O)[C@H](Cc1ccccc1)NC(=O)[C@@H](NC(=O)CNC(=O)[C@H](CCC(=O)O)NC(=O)[C@@H](NC(=O)[C@@H](N)Cc1c[nH]cn1)[C@@H](C)O)[C@@H](C)O)[C@@H](C)O)C(C)C)C(=O)N[C@@H](CCCCNC(=O)COCCOCCNC(=O)COCCOCCNC(=O)CC[C@H](NC(=O)CCCCCCCCCCCCCCCCC(=O)O)C(=O)O)C(=O)N[C@@H](Cc1c[nH]c2ccccc12)C(=O)N[C@@H](CC(C)C)C(=O)N[C@H](C(=O)N[C@@H](CCCNC(=N)N)C(=O)NCC(=O)N[C@@H](CCCNC(=N)N)C(=O)NCC(=O)O)C(C)C [M13] (H-HTEGTFTSDVSSYLEEQAAREFIK([AEEA-AEEA-γGlu-C18 diacid])WLVRGRG-OH; N-terminus and C-terminus assumed) |  | better than that of Semaglutide |  |

The next lines start with results.

| in vitro activities (comparison in words) (GLP1R) | Compound | glucose-lowing effect compared with Semaglutide (FIG. 1) (db/db mice; day 4 and day 5) | glucose-lowing effect compared with Semaglutide (FIG. 1) (db/db mice; day 2) |
| --- | --- | --- | --- |
| comparable | CC[C@H](C)[C@H](NC(=O)[C@H](Cc1ccccc1)NC(=O)[C@H](CCC(=O)O)NC(=O)[C@H](CCCNC(=N)N)NC(=O)[C@H](C)NC(=O)[C@H](C)NC(=O)[C@H](CCC(N)=O)NC(=O)[C@H](CCC(=O)O)NC(=O)[C@H](CCC(=O)O)NC(=O)[C@H](CC(C)C)NC(=O)[C@H](Cc1ccc(O)cc1)NC(=O)[C@H](CO)NC(=O)[C@H](CO)NC(=O)[C@@H](NC(=O)[C@H](CC(=O)O)NC(=O)[C@H](CO)NC(=O)[C@@H](NC(=O)[C@H](Cc1ccccc1)NC(=O)[C@@H](NC(=O)CNC(=O)[C@H](CCC(=O)O)NC(=O)[C@@H](NC(=O)[C@@H](N)Cc1c[nH]cn1)[C@@H](C)CC)[C@@H](C)O)[C@@H](C)O)C(C)C)C(=O)N[C@@H](CCCCNC(=O)COCCOCCNC(=O)COCCOCCNC(=O)CC[C@H](NC(=O)CCCCCCCCCCCCCCCCC(=O)O)C(=O)O)C(=O)N[C@@H](Cc1c[nH]c2ccccc12)C(=O)N[C@@H](CC(C)C)C(=O)N[C@H](C(=O)N[C@@H](CCCNC(=N)N)C(=O)NCC(=O)N[C@@H](CCCNC(=N)N)C(=O)NCC(=O)O)C(C)C [M14, N-ε^30-[2-(2-[2-(2-[2-(2-[4-(17-carboxyheptadecanoylamino)-4(s)-carboxybutyrylamino]ethoxy)ethoxy]acetylamino)ethoxy]ethoxy)acetyl](Ile^8Glu^22Lys^30Arg^26,34-GLP-1(7-37)) peptide] (H-HIEGTFTSDVSSYLEEQAAREFIK([AEEA-AEEA-γGlu-C18 diacid])WLVRGRG-OH; N-terminus and C-terminus assumed) | better than that of Semaglutide |  |
| comparable | CC[C@H](C)[C@H](NC(=O)[C@H](Cc1ccccc1)NC(=O)[C@H](CCC(=O)O)NC(=O)[C@H](CCCNC(=N)N)NC(=O)[C@H](C)NC(=O)[C@H](C)NC(=O)[C@H](CCC(N)=O)NC(=O)[C@H](CCC(=O)O)NC(=O)[C@H](CCC(=O)O)NC(=O)[C@H](CC(C)C)NC(=O)[C@H](Cc1ccc(O)cc1)NC(=O)[C@H](CO)NC(=O)[C@H](CO)NC(=O)[C@@H](NC(=O)[C@H](CC(=O)O)NC(=O)[C@H](CO)NC(=O)[C@@H](NC(=O)[C@H](Cc1ccccc1)NC(=O)[C@@H](NC(=O)CNC(=O)[C@H](CCC(=O)O)NC(=O)CNC(=O)[C@@H](N)Cc1c[nH]cn1)[C@@H](C)O)[C@@H](C)O)C(C)C)C(=O)N[C@@H](CCCCNC(=O)COCCOCCNC(=O)COCCOCCNC(=O)CC[C@H](NC(=O)CCCCCCCCCCCCCCCCC(=O)O)C(=O)O)C(=O)N[C@@H](Cc1c[nH]c2ccccc12)C(=O)N[C@@H](CC(C)C)C(=O)N[C@H](C(=O)N[C@@H](CCCNC(=N)N)C(=O)NCC(=O)N[C@@H](CCCNC(=N)N)C(=O)NCC(=O)O)C(C)C [M16, N-ε^30-[2-(2-[2-(2-[2-(2-[4-(17-carboxyheptadecanoylamino)-4(s)-carboxybutyrylamino]ethoxy)ethoxy]acetylamino)ethoxy]ethoxy)acetyl](Gly^8Glu^22Lys^30Arg^26,34-GLP-1(7-37)) peptide] (H-HGEGTFTSDVSSYLEEQAAREFIK([AEEA-AEEA-γGlu-C18 diacid])WLVRGRG-OH; N-terminus and C-terminus assumed) |  | lower than that of Semaglutide |
